Molecular target: Intestinal-type alkaline phosphatase (Homo sapiens, UniProt P09923)
Experiment: human IAP inhibitors, dose response, biochemical, luminescent, uHTS hits, set 2 (AID 488793)

Intestinal-type alkaline phosphatase, sequence (P09923 whole entry): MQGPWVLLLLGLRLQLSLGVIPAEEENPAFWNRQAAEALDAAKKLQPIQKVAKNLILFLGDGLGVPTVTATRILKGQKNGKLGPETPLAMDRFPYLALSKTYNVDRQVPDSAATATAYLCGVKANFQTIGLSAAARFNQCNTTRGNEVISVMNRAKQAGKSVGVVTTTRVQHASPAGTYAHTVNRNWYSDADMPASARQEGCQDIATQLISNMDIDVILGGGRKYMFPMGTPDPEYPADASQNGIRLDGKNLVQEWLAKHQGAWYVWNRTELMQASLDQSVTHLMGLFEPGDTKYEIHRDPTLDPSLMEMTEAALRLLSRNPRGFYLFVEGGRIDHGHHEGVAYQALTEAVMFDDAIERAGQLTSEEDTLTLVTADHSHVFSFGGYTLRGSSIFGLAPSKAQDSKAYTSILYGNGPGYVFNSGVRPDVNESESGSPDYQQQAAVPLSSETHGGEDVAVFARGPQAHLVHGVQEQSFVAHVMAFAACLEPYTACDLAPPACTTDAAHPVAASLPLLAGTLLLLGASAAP

IC50	Compound
77.3 µM	CC(N=Nc1ccccc1[N+](=O)[O-])c1ccc([N+](=O)[O-])cc1 (centres undefined)
35.8 µM	CCOC1=CC(=Cc2c(C)[nH]oc2=O)C=C(Br)C1=O [4-[(Z)-(3-bromo-5-ethoxy-4-oxo-1-cyclohexa-2,5-dienylidene)methyl]-3-methyl-2H-isoxazol-5-one]
39.4 µM	C=c1[nH]n(Cc2ccccc2)c(=O)c1=Cc1ccc(N(C)C)cc1 [(4Z)-4-[[4-(dimethylamino)phenyl]methylidene]-5-methyl-2-(phenylmethyl)-3-pyrazolone]
0.891 µM	O=C(O)[C@H]1O[C@@H](Oc2c(-c3ccc(O)c(O)c3)oc3cc(O)cc(=O)c-3c2O)[C@H](O)[C@@H](O)[C@@H]1O [quercetin glucuronide]
